Assay results reported in the CheMixHub ionic liquid set.
± gives the uncertainty stated by the source.

Assay: xn = mol fraction of the nth substance listed
Details: 100 kPa

CCCCCC[n+]1ccn(C)c1.C[C@H](N)C(=O)[O-] + O
viscosity [mPa·s]
Details | 288.15 K | 293.15 K | 298.15 K | 303.15 K | 308.15 K | 313.15 K | 318.15 K | 323.15 K | 328.15 K
x1 = 0.000299 | 1.156 ± 0.016 | 1.017 ± 0.016 | 0.902 ± 0.015 | 0.809 ± 0.014 | 0.728 ± 0.013 | 0.661 ± 0.013 | 0.603 ± 0.013 | 0.554 ± 0.012 | 0.512 ± 0.012
x1 = 0.0003981 | 1.162 ± 0.017 | 1.022 ± 0.016 | 0.907 ± 0.015 | 0.813 ± 0.014 | 0.732 ± 0.013 | 0.664 ± 0.013 | 0.606 ± 0.013 | 0.557 ± 0.013 | 0.514 ± 0.012
x1 = 0.0004989 | 1.167 ± 0.018 | 1.026 ± 0.016 | 0.911 ± 0.015 | 0.816 ± 0.014 | 0.735 ± 0.013 | 0.666 ± 0.013 | 0.608 ± 0.013 | 0.559 ± 0.013 | 0.516 ± 0.012
x1 = 0.0009991 | 1.203 ± 0.018 | 1.057 ± 0.019 | 0.937 ± 0.017 | 0.838 ± 0.016 | 0.755 ± 0.015 | 0.684 ± 0.014 | 0.626 ± 0.014 | 0.573 ± 0.013 | 0.53 ± 0.013
x1 = 0.003 | 1.361 ± 0.019 | 1.191 ± 0.018 | 1.05 ± 0.016 | 0.933 ± 0.015 | 0.833 ± 0.014 | 0.754 ± 0.013 | 0.684 ± 0.013 | 0.626 ± 0.013 | 0.576 ± 0.012
x1 = 0.00499 | 1.512 ± 0.019 | 1.325 ± 0.018 | 1.162 ± 0.016 | 1.027 ± 0.015 | 0.916 ± 0.014 | 0.825 ± 0.014 | 0.745 ± 0.013 | 0.681 ± 0.013 | 0.625 ± 0.012
x1 = 0.006965 | 1.656 ± 0.02 | 1.445 ± 0.018 | 1.272 ± 0.016 | 1.118 ± 0.015 | 0.997 ± 0.014 | 0.893 ± 0.014 | 0.805 ± 0.013 | 0.736 ± 0.013 | 0.672 ± 0.012
x1 = 0.008965 | 1.819 ± 0.02 | 1.573 ± 0.018 | 1.367 ± 0.016 | 1.202 ± 0.015 | 1.069 ± 0.014 | 0.958 ± 0.014 | 0.866 ± 0.013 | 0.781 ± 0.013 | 0.717 ± 0.013
x1 = 0.01103 | 1.954 ± 0.02 | 1.694 ± 0.018 | 1.475 ± 0.017 | 1.287 ± 0.015 | 1.145 ± 0.015 | 1.026 ± 0.014 | 0.928 ± 0.013 | 0.831 ± 0.013 | 0.763 ± 0.013
x1 = 0.01294 | 2.097 ± 0.021 | 1.814 ± 0.019 | 1.577 ± 0.017 | 1.377 ± 0.016 | 1.223 ± 0.015 | 1.087 ± 0.014 | 0.984 ± 0.013 | 0.887 ± 0.013 | 0.807 ± 0.013
x1 = 0.01501 | 2.242 ± 0.021 | 1.953 ± 0.018 | 1.69 ± 0.017 | 1.466 ± 0.016 | 1.303 ± 0.015 | 1.161 ± 0.014 | 1.035 ± 0.013 | 0.936 ± 0.013 | 0.854 ± 0.013
x1 = 0.01801 | 2.455 ± 0.022 | – | – | – | – | – | – | – | –
